Columns and labels:
ETA receptors = target: T1, ETA receptors (Rattus norvegicus, UniProt P26684); test: Inhibition of endothelin-1-induced contraction on isolated rat aortic rings
T1 construct: The thoracic aorta or trachea were excised, dissected and cut in 3-5 mm rings; from tissue; host or cells: thoracic aorta rings of adult Wistar rats, endothelium removed
T1 sequence (P26684 21-426): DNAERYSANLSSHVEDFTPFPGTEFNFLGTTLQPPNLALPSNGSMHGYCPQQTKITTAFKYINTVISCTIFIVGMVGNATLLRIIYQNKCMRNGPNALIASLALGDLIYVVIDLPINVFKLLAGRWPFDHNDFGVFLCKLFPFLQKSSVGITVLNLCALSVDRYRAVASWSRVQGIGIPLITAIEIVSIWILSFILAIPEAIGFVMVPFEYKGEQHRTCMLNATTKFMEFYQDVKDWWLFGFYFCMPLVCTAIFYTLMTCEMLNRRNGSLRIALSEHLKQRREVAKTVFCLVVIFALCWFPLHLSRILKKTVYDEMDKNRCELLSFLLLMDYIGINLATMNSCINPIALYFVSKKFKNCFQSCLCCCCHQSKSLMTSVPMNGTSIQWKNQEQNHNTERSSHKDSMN
Protocol: 2) Inhibition of Endothelin-Induced Contractions on Isolated Rat Aortic Rings (ETA Receptors) and Rat Tracheal Rings (ETB Receptors)
The functional inhibitory potency of the endothelin antagonists was assessed by their inhibition of the contraction induced by endothelin-1 on rat aortic rings (ETA receptors) and of the contraction induced by sarafotoxin S6c on rat tracheal rings (ETB receptors). Adult Wistar rats were anesthetized and exsanguinated. The thoracic aorta or trachea were excised, dissected and cut in 3-5 mm rings. The endothelium/epithelium was removed by gentle rubbing of the intimal surface. Each ring was suspended in a 10 mL isolated organ bath filled with Krebs-Henseleit solution (in mM; NaCl 115, KCl 4.7, MgSO4 1.2, KH2PO4 1.5, NaHCO3 25, CaCl2 2.5, glucose 10) kept at 37° C. and gassed with 95% O2 and 5% CO2. The rings were connected to force transducers and isometric tension was recorded (EMKA Technologies SA, Paris, France). The rings were stretched to a resting tension of 3 g (aorta) or 2 g (trachea). […] The functional inhibitory potency of the test compound was assessed by calculating the concentration ratio, i.e. the shift to the right of the EC50 induced by different concentrations of test compound. […]

[1] = Pharmacokinetics in the rat after single-dose oral administration; type: in vivo; conditions: male Wistar rats, plasma; for half-life: oral gavage 10 mg/kg; for clearance: oral, 10 mg/kg
Protocol: Pharmacokinetics in the Rat After Single-Dose Oral Administration
Male Wistar rats with a body weight of 200-250 g were used for pharmacokinetic experiments after an acclimatization period of at least 7 days. All animals were housed under conditions in accordance with the NIH guidelines. Two days prior to the experiment, rats were anesthetized with a mixture of ketamin (90 mg/kg) and xylazine 2% (10 mg/kg) i.p. A catheter was implanted under aseptic conditions into the jugular vein to allow for multiple blood sampling. After recovery from general anesthesia, animals were housed individually under standard laboratory conditions in Makrolon type-3 cages with wire mesh tops and standardized softwood bedding. Animals had free access to water and food during the recovery period and the entire duration of the experiment.
Pharmacokinetic experiments were performed in Wistar rats (m=2-3) after jugular vein cannulation to allow for serial blood sampling. Test compounds were administered orally by gavage at doses of 10 mg/kg. Blood was then sampled at pre-defined time points over a period of 24 h and plasma prepared by centrifugation. Drug concentrations in plasma were quantified using liquid chromatography coupled to mass spectrometry (limit of quantification: 4.6 ng/mL). Pharmacokinetic evaluation was performed using non-compartmental analysis.

[2] = target: T2, human recombinant ETA receptors (Homo sapiens, UniProt P25101); test: Inhibition of endothelin binding to membranes from CHO cells carrying human ETA receptors
T2 construct: expressed in transfected cells; host or cells: CHO cells (microsomal membranes)
T2 sequence (P25101 21-427): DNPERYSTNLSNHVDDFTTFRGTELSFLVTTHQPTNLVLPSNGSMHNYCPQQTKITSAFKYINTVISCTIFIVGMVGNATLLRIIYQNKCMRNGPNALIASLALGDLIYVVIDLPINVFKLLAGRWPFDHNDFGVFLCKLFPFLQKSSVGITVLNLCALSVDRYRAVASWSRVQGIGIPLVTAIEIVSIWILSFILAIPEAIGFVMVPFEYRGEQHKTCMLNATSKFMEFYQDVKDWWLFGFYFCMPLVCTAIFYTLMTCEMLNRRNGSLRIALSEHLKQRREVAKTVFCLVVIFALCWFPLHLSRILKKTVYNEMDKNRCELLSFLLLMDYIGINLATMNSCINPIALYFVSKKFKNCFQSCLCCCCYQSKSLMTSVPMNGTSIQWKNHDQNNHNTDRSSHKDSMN
Protocol: 1) Inhibition of Endothelin Binding to Membranes from CHO Cells Carrying Human ET Receptors
For competition binding studies, membranes of CHO cells expressing human recombinant ETA or ETB receptors were used.
All the test compounds were dissolved, diluted and added in DMSO.

| SMILES | Kb (ETA receptors) | half-life [1] | clearance [1] | IC50 [2] |
| --- | --- | --- | --- | --- |
| NS(=O)(=O)Nc1ncnc(OCCOc2ncc(Br)cn2)c1-c1ccc(Br)cc1 [Compound of formula I, {5-(4-bromo-phenyl)-6-[2-(5-bromo-pyrimidin-2-yloxy)-ethoxy]-pyrimidin-4-yl}-sulfamide] | 200 nM | 8.7 h | 1.3 mL/min/kg | 3.7 nM |
| CCCNS(=O)(=O)Nc1ncnc(OCCOc2ncc(Br)cn2)c1-c1ccc(Br)cc1 [Reference Compound, Propylsulfamic acid [5(4 bromo-phenyl)-6-[2-(5-bromo-pyrimidin-2-yloxy)-ethoxy]-pyrimidin-4-yl]-amide, reference compound] | – | 2.8 to 4.2 h | 5.7 to 10 mL/min/kg | – |

Reference: patent publication US8324232B2, “4-pyrimidinesulfamide derivative” (Actelion Pharmaceuticals Ltd., priority 2007, dated 2012)
